Test: Relaxivity values of some known compounds for MRI (Table I)
Format: physicochemical
Details: 0.47 T, 25° C., pH 7; for r1p HSA 4%: HSA 4% in NaCl 0.9%
Source text: As mentioned above, pSLNs usually show very high relaxivity in physiological medium, higher than values typically found in non-derivatized hydrophilic gadolinium complexes, in particular when formulated in SLNs, as better detailed in the experimental part for some representative compounds. As an example, relaxivity values for some Gd(III)complexes are indicated below, where values measured in physiologic conditions refer to those in obtained HSA 4% in NaCl 0.9%.

| Structure (SMILES) | r1p HSA 4% | r1p Human plasma (HP) | r1p Water |
| --- | --- | --- | --- |
| O=C([O-])CN1CCN(CC(=O)[O-])CCN([C@H](CO)[C@H](O)CO)CCN(CC(=O)[O-])CC1.[Gd+3] (racemic) [Gd-BT-DO3A, Gadobutrol] | 4.31 mM⁻¹ s⁻¹ | 5.76 mM⁻¹ s⁻¹ | 3.75 mM⁻¹ s⁻¹ |
| CC(O)CN1CCN(CC(=O)[O-])CCN(CC(=O)[O-])CCN(CC(=O)[O-])CC1.[Gd+3] (stereo not drawn) [Gd-HP-DO3A, Gadoteridol[10-(2-hydroxyprop-1-yl) -1,4,7,10-tetraazacyclododecane-1,4,7-triacetate(3-)] gadolinium] | 3.85 mM⁻¹ s⁻¹ | 4.80 mM⁻¹ s⁻¹ | 3.32 mM⁻¹ s⁻¹ |
| C[NH2+]C[C@H](O)[C@@H](O)[C@H](O)[C@H](O)CO.O=C([O-])CN1CCN(CC(=O)[O-])CCN(CC(=O)[O-])CCN(CC(=O)[O-])CC1.[Gd+3] [Gd-DOTA, Gadoterato meglumine [[1,4,7,10-tetraazacyclododecane-1,4,7,10-tetraacetate (4-)] gadolinate (1-)] meglumine] | 4.11 mM⁻¹ s⁻¹ | 4.51 mM⁻¹ s⁻¹ | 3.61 mM⁻¹ s⁻¹ |

From patent US10039843B2, “Paramagnetic solid lipid nanoparticles (pSLNs) containing metal amphiphilic complexes for MRI” (BRACCO IMAGING S.P.A., priority 2012, dated 2018)
